#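 Briefly, cells in 96-well plates were exposed to five compound concentrations for 48 h, and endpoints were estimated by linear interpolation. Abbreviation: GI50, concentration required for 50% inhibition of growth.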 Calls of active or inactive are those of the source. Cut-off read from the data, not from the text of the source: active = GI50 up to about 1.1 µM and inactive = higher.
# How the values were obtained:
# Assay in all cases: inhibition of tumour cell growth, NCI panel, 48 h
# [1] = system: EKVX
# [2] = system: SF-539
# [3] = system: NCI-H23
# [4] = system: LOX IMVI
# [5] = system: HCT-116
# [6] = system: HOP-62
# [7] = system: SF-268
# [8] = system: BT-549
# [9] = system: MOLT-4
# [10] = system: NCI-H226
# [11] = system: UACC-257
# [12] = system: U-251
# [13] = system: SK-MEL-2
# [14] = system: NCI-H522
# [15] = system: RPMI-8226
# [16] = system: NCI-H460
# [17] = system: KM12
# [18] = system: IGROV-1
# [19] = system: HOP-92
# [20] = system: CCRF-CEM
SMILES,GI50 [1],GI50 [2],GI50 [3],GI50 [4],GI50 [5],GI50 [6],GI50 [7],GI50 [8],GI50 [9],GI50 [10],GI50 [11],GI50 [12],GI50 [13],GI50 [14],GI50 [15],GI50 [16],GI50 [17],GI50 [18],GI50 [19],GI50 [20]
NC(CC(=O)Nc1cc(C(F)(F)F)ccc1Cl)=NO,> 100 µM (inactive),> 100 µM (inactive),> 100 µM (inactive),> 100 µM (inactive),> 100 µM (inactive),> 100 µM (inactive),> 100 µM (inactive),> 100 µM (inactive),> 100 µM (inactive),> 100 µM (inactive),> 100 µM (inactive),> 100 µM (inactive),> 100 µM (inactive),> 100 µM (inactive),> 100 µM (inactive),> 100 µM (inactive),> 100 µM (inactive),> 100 µM (inactive),> 100 µM (inactive),
O=[N+]([O-])c1cc2no[n+]([O-])c2cc1N1CCCCC1,2.58 µM (inactive),2.39 µM (inactive),12.5 µM (inactive),1.79 µM (inactive),1.93 µM (inactive),4.34 µM (inactive),8.18 µM (inactive),9.29 µM (inactive),1.06 µM (active),39.8 µM (inactive),8.24 µM (inactive),3.93 µM (inactive),7.05 µM (inactive),1.48 µM (inactive),1.28 µM (inactive),15.6 µM (inactive),13.4 µM (inactive),3.21 µM (inactive),2.4 µM (inactive),0.38 µM (active)
CC(=O)N/N=C1\NC(=O)C[C@H]2[C@@H]3CC=C4C[C@@H](OC(C)=O)CC[C@]4(C)[C@H]3CC[C@]12C,36.1 µM (inactive),7.33 µM (inactive),49.9 µM (inactive),35.4 µM (inactive),67 µM (inactive),13.6 µM (inactive),27.7 µM (inactive),12.4 µM (inactive),> 100 µM (inactive),23.8 µM (inactive),18.7 µM (inactive),12.8 µM (inactive),47.5 µM (inactive),32.1 µM (inactive),24.3 µM (inactive),,38.9 µM (inactive),31 µM (inactive),15.9 µM (inactive),> 100 µM (inactive)
Cc1cc(C)n(CN(CCCCO)Cn2nc(C)cc2C)n1,35.3 µM (inactive),18.6 µM (inactive),24.3 µM (inactive),22.8 µM (inactive),20 µM (inactive),21.8 µM (inactive),25.6 µM (inactive),23 µM (inactive),14.2 µM (inactive),,25.5 µM (inactive),22.4 µM (inactive),22.2 µM (inactive),23.8 µM (inactive),3.21 µM (inactive),52.7 µM (inactive),23 µM (inactive),26.9 µM (inactive),22 µM (inactive),0.178 µM (active)
COC(CC1(CCNc2ccccc2)C(=O)N(COCC[Si](C)(C)C)c2ccccc21)OC (stereo not drawn),17.8 µM (inactive),,16.5 µM (inactive),12.5 µM (inactive),13.9 µM (inactive),13.7 µM (inactive),11.6 µM (inactive),17.2 µM (inactive),> 43.7 µM (inactive),6 µM (inactive),11.7 µM (inactive),18.2 µM (inactive),15.3 µM (inactive),11.9 µM (inactive),7.23 µM (inactive),15 µM (inactive),8.85 µM (inactive),9.66 µM (inactive),13.8 µM (inactive),15.8 µM (inactive)
CCN1C(=O)C(=C/C=C/C=C2/N(C)c3ccccc3C2(C)C)C(=O)N(CC)C1=S,> 100 µM (inactive),78.3 µM (inactive),> 100 µM (inactive),21.5 µM (inactive),> 100 µM (inactive),32.5 µM (inactive),99.3 µM (inactive),13.6 µM (inactive),,> 100 µM (inactive),56.1 µM (inactive),,> 100 µM (inactive),> 100 µM (inactive),> 100 µM (inactive),38.9 µM (inactive),> 100 µM (inactive),> 100 µM (inactive),> 100 µM (inactive),> 100 µM (inactive)
Cc1ccc(-[n+]2cc([O-])on2)cc1,> 100 µM (inactive),,> 100 µM (inactive),> 100 µM (inactive),> 100 µM (inactive),> 100 µM (inactive),> 100 µM (inactive),> 100 µM (inactive),> 100 µM (inactive),10.1 µM (inactive),> 100 µM (inactive),> 100 µM (inactive),> 100 µM (inactive),> 100 µM (inactive),> 100 µM (inactive),> 100 µM (inactive),> 100 µM (inactive),> 100 µM (inactive),64 µM (inactive),> 100 µM (inactive)
